This passage reports TGI and GI50 results from PubChem BioAssay (NCI).

The structures appear in SMILES notation.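 Cultured in 96-well plates, cells were exposed to test compound for 48 hours across five concentrations. Here, GI50 denotes the concentration required for 50% inhibition of growth. Definition used: TGI = concentration required for complete inhibition of growth.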

Holding throughout (test): NCI tumour cell line growth inhibition, 48 h
In experiment [1] the test system is SW-620 colon.
Experiment [2] concerns HL-60(TB) leukemia.
Experiment [3] has as its system KM12 colon.
Experiment [4] has as its system OVCAR-3 ovarian.
Experiment [5] deals with SK-MEL-28 melanoma.
Experiment [6] has as its system OVCAR-8 ovarian.
The test system of experiment [7] is COLO 205 colon.
For experiment [8], the system named is SF-268 CNS.
Experiment [9] concerns UO-31 renal.
The subject of experiment [10] is EKVX NSCLC.

Consider `O=C(Nc1sccc1S(=O)(=O)c1ccc(Cl)cc1)c1ccc(Cl)cc1Cl`, for which the TGI in experiment [1], in experiment [2], in experiment [3], in experiment [4], in [5] and in experiment [6] was over 100 µM each time. The TGI in experiment [7], in [8], in experiment [9] and in [10] was over 100 µM in each case.
`C[As](C)SCC(NC(=O)CCC(N)C(=O)O)C(=O)NCC(=O)O.Cl.c1ccncc1` (configuration not stated): the TGI came to 6.59 µM in experiment [1]; 0.878 µM in [2]; 3.81 µM in experiment [3]; 0.412 µM in experiment [4]; 2.01 µM in experiment [5]; 0.679 µM in experiment [6]. The TGI is over 100 µM in experiment [7], 3.59 µM in experiment [8], 1.31 µM in experiment [9] and 3.08 µM in experiment [10].
Consider `COC[C@@H]1Cc2cc(OC)c3c(c2[C@H](c2ccc(OC)c(OC)c2)[C@H]1COC)OCO3`, for which the TGI in [1], in experiment [2], in experiment [3], in experiment [4], in [5] and in experiment [6] was over 100 µM each time. In addition, the TGI in experiment [7], in [8], in [9] and in experiment [10] was over 100 µM throughout.
Regarding `O=CNNC(=O)CSc1nc2ccc(I)cc2c(=O)n1Cc1ccccc1`, the TGI in experiment [1] was over 100 µM; in experiment [2], 89.7 µM; in experiment [3], over 100 µM; in [4] it was 50.2 µM; in [5], over 100 µM; in experiment [6] it was over 100 µM. Moreover, the TGI is 36.4 µM in [7], over 100 µM in experiment [8], 3.93 µM in experiment [9] and 69.7 µM in [10].
As to `COC1=CCC2=C(CCN(C(=O)C3CC3)C2Cc2ccc(OC)c(O)c2)C1` (configuration not stated), the TGI in experiment [1] is over 100 µM; in experiment [2], 91.7 µM; in [3], over 100 µM; in experiment [4], over 100 µM; in [5] it was over 100 µM; in experiment [6], over 100 µM. Also, the TGI in [7], in experiment [8], in experiment [9] and in experiment [10] was over 100 µM in each case.
`O=CN(O)CC(=O)O.[Ni]`: the TGI in experiment [1], in [2], in [3], in experiment [4], in [5] and in experiment [6] was over 100 µM in each case. The TGI in experiment [7], in experiment [8], in experiment [9] and in experiment [10] was over 100 µM each time.
With `O=C1/C(=C/c2ccc3c(c2)OCO3)Sc2scc(-c3ccc(O)c(O)c3)[n+]21`, the TGI in [3] is 13.1 µM; in experiment [4], 15.3 µM; in [5], over 100 µM; in experiment [6], 9.94 µM; in experiment [7] it was over 19.7 µM; in [8], 97.2 µM. In addition, the TGI is 6.08 µM in [9] and 8.25 µM in experiment [10].
As for `CC(=O)C1=C(C)N(c2ccc(C)cc2)C2(O)C=CC(=O)C3=C(O)c4ccccc4C(=O)C312` (configuration not stated), the TGI in [1] was over 100 µM; in experiment [2] it was over 100 µM; in experiment [3], 55.1 µM; in [4], 16.1 µM; in [5], 34.5 µM; in [6] it was 64.6 µM. The TGI in [7] was over 100 µM; in [8], 62.4 µM; in experiment [9], 34.8 µM; in [10] it was 61.2 µM.
On to `Nc1nccc2c1ncn2C1C=C(CO)C(O)C1O` (configuration not stated), for which the GI50 in experiment [1] was 0.775 µM; in [2], 0.337 µM; in [3] it was 0.755 µM; in [4], 136 µM; in [5], 0.852 µM; in [6], 23.9 µM. Also, the GI50 in [7] was 7.35 µM. Besides, the TGI in [1], in [2], in experiment [3], in experiment [4], in [5] and in [6] was over 1000 µM each time. In experiment [7], this molecule yielded a TGI of over 1000 µM.
As for `CC(=O)OCC1OC(N2C(=O)CC(N)=Nc3ccccc32)C(OC(C)=O)C(OC(C)=O)C1OC(C)=O` (configuration not stated), the TGI in experiment [1], in experiment [2], in experiment [3], in experiment [4], in experiment [5] and in [6] was over 100 µM throughout. In addition, the TGI is 29.7 µM in experiment [7], over 100 µM in [8], over 100 µM in experiment [9] and over 100 µM in experiment [10].
Turning to `CC(C)(C)C(=O)CC(=O)C(F)(F)C(F)(F)C(F)(F)F.CC(C)(C)C(=O)CC(=O)C(F)(F)C(F)(F)C(F)(F)F.CC(C)(C)C(=O)CC(=O)C(F)(F)C(F)(F)C(F)(F)F.[Er]`, the TGI in [1], in [2], in [3], in experiment [4], in [5] and in experiment [6] was over 100 µM in each case. Besides, the TGI in experiment [7] is over 100 µM; in experiment [8] it was over 100 µM; in [9], over 100 µM; in experiment [10], 96.8 µM.
For `CN(CCNC(=O)c1cn(C)c2c1ccc1cc(Cl)ccc12)CCNC(=O)c1cn(C)c2c1ccc1cc(Cl)ccc12`, the TGI in [1] turned out to be 40.5 µM; in experiment [2] it was 10.4 µM; in experiment [3], 3.03 µM; in experiment [4], 6.43 µM; in experiment [5], 10.9 µM; in experiment [6] it was 33.8 µM. The TGI in [7] turned out to be 2.57 µM; in [8], 3.51 µM; in [9], 2.94 µM; in experiment [10] it was 4.04 µM.
